Measurements as given in ChEMBL document CHEMBL1649099, “Identification of potent and selective glucosylceramide synthase inhibitors from a library of N-alkylated iminosugars” (ACS Med Chem Lett, 2011).

Assays:
[1] = target: T1, Ceramide glucosyltransferase (Mus musculus, UniProt O88693); assay: Inhibition of glucosylceramide synthase in mouse RAW cells preincubated with compound for 15 mins by in-situ enzyme inhibition assay; assay type: cell-based
T1 sequence (O88693 whole entry): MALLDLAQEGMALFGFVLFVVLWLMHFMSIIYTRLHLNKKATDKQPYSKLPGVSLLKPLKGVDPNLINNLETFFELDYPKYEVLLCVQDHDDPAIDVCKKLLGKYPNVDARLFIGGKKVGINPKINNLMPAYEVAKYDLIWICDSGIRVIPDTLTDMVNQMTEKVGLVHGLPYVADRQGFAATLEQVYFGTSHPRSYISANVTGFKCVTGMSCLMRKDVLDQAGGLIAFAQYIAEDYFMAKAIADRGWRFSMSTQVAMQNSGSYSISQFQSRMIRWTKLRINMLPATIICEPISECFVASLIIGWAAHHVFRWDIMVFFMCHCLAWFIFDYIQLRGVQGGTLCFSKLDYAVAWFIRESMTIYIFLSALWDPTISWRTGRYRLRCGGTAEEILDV

[2] = target: T2, Lysosomal acid glucosylceramidase (Homo sapiens, UniProt P04062); assay: Inhibition of recombinant GBA1 preincubated with compound for 30 mins using 4-methylumbelliferyl-B-glucoside substrate by fluorimetric assay
T2 sequence (P04062 whole entry): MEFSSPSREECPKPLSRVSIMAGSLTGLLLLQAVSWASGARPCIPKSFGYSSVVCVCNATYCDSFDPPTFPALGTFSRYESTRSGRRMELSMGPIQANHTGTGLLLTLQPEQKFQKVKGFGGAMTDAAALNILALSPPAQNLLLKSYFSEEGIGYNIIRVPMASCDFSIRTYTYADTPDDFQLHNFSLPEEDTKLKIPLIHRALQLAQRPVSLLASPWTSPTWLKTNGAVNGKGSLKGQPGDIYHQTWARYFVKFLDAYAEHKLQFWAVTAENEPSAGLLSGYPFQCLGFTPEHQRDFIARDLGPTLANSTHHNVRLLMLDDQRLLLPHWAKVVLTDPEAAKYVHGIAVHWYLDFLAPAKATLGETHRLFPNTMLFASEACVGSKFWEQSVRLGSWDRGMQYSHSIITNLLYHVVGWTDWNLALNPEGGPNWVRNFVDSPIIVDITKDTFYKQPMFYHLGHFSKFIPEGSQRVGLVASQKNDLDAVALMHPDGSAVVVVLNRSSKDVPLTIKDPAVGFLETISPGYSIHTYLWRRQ

Beta-glucosidase = target: T3, Beta-glucosidase (Homo sapiens, UniProt Q9HCG7); assay: Inhibition of recombinant GBA2 preincubated with compound for 30 mins using 4-methylumbelliferyl-B-glucoside substrate by fluorimetric assay
T3 sequence (Q9HCG7 whole entry): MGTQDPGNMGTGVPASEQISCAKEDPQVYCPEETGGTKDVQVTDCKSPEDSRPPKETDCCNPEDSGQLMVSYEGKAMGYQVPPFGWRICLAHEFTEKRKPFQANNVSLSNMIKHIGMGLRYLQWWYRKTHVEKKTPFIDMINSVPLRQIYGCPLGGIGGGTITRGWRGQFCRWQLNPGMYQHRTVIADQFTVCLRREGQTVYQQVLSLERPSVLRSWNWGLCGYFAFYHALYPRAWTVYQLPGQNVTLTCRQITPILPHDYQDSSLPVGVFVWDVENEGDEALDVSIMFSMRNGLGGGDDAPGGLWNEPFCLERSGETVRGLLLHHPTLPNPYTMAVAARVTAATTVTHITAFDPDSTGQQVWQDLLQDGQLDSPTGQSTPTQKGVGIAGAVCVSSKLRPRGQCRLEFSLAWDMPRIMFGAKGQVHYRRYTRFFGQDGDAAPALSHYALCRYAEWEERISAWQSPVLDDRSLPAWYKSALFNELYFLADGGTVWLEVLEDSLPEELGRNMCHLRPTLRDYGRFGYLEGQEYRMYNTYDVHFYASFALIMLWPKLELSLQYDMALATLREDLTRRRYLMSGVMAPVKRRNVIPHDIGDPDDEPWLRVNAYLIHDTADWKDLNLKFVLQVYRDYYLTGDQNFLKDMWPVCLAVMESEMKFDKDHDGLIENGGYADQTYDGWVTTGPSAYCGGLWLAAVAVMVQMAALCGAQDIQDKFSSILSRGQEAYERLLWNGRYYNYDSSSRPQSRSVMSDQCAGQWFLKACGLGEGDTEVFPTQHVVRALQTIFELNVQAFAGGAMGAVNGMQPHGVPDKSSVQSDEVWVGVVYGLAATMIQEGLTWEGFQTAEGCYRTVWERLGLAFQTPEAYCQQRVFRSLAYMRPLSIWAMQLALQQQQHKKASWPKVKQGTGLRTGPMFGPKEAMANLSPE

Sucrase-isomaltase = Sucrase-isomaltase (Mus musculus, UniProt B5THE3); assay: Inhibition of sucrase in mouse intestinal […] by glucose release assay
Sucrase-isomaltase, sequence (B5THE3 whole entry): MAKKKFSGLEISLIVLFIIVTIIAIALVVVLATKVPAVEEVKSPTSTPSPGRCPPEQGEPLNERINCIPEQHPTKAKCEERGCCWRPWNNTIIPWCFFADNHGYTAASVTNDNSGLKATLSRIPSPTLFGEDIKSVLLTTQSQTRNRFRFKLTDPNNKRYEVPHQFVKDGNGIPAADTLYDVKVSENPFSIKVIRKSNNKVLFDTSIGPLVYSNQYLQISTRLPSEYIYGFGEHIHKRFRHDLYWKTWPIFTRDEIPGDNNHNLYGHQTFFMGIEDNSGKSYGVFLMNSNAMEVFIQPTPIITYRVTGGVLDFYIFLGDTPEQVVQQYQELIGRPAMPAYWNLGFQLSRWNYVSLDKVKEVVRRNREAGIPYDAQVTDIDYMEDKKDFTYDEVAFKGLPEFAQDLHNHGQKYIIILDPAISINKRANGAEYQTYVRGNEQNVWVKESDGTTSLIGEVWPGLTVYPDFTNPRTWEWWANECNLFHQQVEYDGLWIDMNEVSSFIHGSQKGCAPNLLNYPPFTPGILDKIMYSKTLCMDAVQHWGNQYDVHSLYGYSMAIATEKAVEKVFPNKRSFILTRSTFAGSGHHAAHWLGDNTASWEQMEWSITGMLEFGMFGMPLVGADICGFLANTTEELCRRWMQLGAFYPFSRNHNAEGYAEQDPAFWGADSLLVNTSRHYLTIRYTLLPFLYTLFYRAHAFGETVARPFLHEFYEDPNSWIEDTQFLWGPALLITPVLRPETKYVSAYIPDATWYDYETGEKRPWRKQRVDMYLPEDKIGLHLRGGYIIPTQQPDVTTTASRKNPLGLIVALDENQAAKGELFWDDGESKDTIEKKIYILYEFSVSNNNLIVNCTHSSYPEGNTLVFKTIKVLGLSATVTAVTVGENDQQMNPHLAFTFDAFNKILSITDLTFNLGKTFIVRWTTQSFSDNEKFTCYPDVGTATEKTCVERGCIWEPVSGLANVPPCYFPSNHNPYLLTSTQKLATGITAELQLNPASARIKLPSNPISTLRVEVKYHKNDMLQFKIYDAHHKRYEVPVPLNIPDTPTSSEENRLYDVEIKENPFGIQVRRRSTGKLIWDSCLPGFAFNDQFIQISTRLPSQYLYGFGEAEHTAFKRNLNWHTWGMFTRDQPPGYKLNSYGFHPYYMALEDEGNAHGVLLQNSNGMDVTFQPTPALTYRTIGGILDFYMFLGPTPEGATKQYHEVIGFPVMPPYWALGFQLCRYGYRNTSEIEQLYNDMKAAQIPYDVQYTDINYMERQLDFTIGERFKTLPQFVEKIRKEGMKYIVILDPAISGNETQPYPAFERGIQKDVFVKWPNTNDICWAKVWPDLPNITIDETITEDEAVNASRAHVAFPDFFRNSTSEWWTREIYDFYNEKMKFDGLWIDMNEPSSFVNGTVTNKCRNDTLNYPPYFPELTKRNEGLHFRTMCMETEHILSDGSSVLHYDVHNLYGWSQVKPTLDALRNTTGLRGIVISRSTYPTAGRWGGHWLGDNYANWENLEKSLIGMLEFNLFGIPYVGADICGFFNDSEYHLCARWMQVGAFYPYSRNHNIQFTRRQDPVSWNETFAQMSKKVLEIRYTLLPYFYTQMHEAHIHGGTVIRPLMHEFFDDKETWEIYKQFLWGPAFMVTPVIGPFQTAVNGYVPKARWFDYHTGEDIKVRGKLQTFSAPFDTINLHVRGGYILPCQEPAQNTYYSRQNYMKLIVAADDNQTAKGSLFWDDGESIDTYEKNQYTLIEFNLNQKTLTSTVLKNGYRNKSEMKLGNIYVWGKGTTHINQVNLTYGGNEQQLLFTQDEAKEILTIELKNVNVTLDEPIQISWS

IC50 [1] [µM] | IC50 [2] [µM] | IC50 (Beta-glucosidase) [µM] | IC50 (Sucrase-isomaltase) [µM] | SMILES
> 20 | 500 | 0.4 | 2 | CCCCCN1C[C@H](O)[C@@H](O)[C@H](O)[C@H]1CO
> 20 | 80 | 0.11 | 1 | CCCCCCN1C[C@H](O)[C@@H](O)[C@H](O)[C@H]1CO
40 | 18.5 | 0.045 | – | CCCCCCCN1C[C@H](O)[C@@H](O)[C@H](O)[C@H]1CO
4 | 4 | 0.02 | 0.75 | CCCCCCCCN1C[C@H](O)[C@@H](O)[C@H](O)[C@H]1CO
15 | > 1000 | 0.25 | > 1000 | CCCCCN1C[C@H](O)[C@@H](O)[C@H](O)[C@@H]1CO
40 | > 1000 | 0.14 | 600 | CCCCCCN1C[C@H](O)[C@@H](O)[C@H](O)[C@@H]1CO
4 | 700 | 0.04 | – | CCCCCCCN1C[C@H](O)[C@@H](O)[C@H](O)[C@@H]1CO
4 | 25 | 0.02 | 60 | CCCCCCCCN1C[C@H](O)[C@@H](O)[C@H](O)[C@@H]1CO
– | – | – | > 1000 | CCCCCCCCCN1C[C@H](O)[C@@H](O)[C@H](O)[C@@H]1CO
4 | 30 | 0.06 | 2 | CCCCOCCCCCN1C[C@H](O)[C@@H](O)[C@H](O)[C@H]1CO
2 | 705 | 0.04 | – | CCCCCOCCCCCN1C[C@H](O)[C@@H](O)[C@H](O)[C@H]1CO
1 | – | 0.008 | – | CCCCCCOCCCCCN1C[C@H](O)[C@@H](O)[C@H](O)[C@H]1CO
0.3 | 1.75 | 0.015 | 1 | CCCCCCCOCCCCCN1C[C@H](O)[C@@H](O)[C@H](O)[C@H]1CO
0.2 | 0.5 | 0.01 | 1 | CCCCCCCCOCCCCCN1C[C@H](O)[C@@H](O)[C@H](O)[C@H]1CO
0.1 | – | – | – | CCCCCCCCCOCCCCCN1C[C@H](O)[C@@H](O)[C@H](O)[C@H]1CO
2 | > 1000 | 0.09 | > 1000 | CCCCOCCCCCN1C[C@H](O)[C@@H](O)[C@H](O)[C@@H]1CO
0.15 | 100 | 0.015 | – | CCCCCOCCCCCN1C[C@H](O)[C@@H](O)[C@H](O)[C@@H]1CO
0.1 | – | 0.025 | – | CCCCCCOCCCCCN1C[C@H](O)[C@@H](O)[C@H](O)[C@@H]1CO
0.05 | 40 | 0.015 | > 1000 | CCCCCCCOCCCCCN1C[C@H](O)[C@@H](O)[C@H](O)[C@@H]1CO
0.05 | 15 | 0.015 | > 1000 | CCCCCCCCOCCCCCN1C[C@H](O)[C@@H](O)[C@H](O)[C@@H]1CO
< 0.05 | – | – | – | CCCCCCCCCOCCCCCN1C[C@H](O)[C@@H](O)[C@H](O)[C@@H]1CO
– | – | – | 0.4 | CCCCCCCCCN1C[C@H](O)[C@@H](O)[C@H](O)[C@H]1CO
